Results on nine compounds are retold here after PubChem BioAssay (NCI).

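Method: 48-hour compound exposure of cells in 96-well plates, five concentrations, linear interpolation of endpoints. At the GI50, growth is halved. TGI marks complete inhibition of growth.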

Test systems include K-562 leukemia; NCI/ADR-RES ovarian; OVCAR-5 ovarian; NCI-H522 lung; HL-60(TB) leukemia; MOLT-4 leukemia; U251 CNS; MALME-3M melanoma; UACC-62 melanoma; LOX IMVI melanoma.
Common to all, as to assay: NCI tumour cell line growth inhibition, 48 h

In the case of `OC(COc1ccccc1)CN1CCCCC1` (centres undefined), the TGI with K-562 leukemia, in the assay on NCI/ADR-RES ovarian, in the assay with OVCAR-5 ovarian, in the assay on NCI-H522 lung, in the assay with HL-60(TB) leukemia and in the assay with MOLT-4 leukemia was more than 100000 nM each time. The TGI in the assay with U251 CNS, in the assay on MALME-3M melanoma, in the assay on UACC-62 melanoma and with LOX IMVI melanoma was more than 100000 nM in each case.
On to `COc1ccc2nc3cccc([N+](=O)[O-])c3c(NCCNCCN(C)C)c2c1`, for which the GI50 in the assay with K-562 leukemia is 22.2 nM; with NCI/ADR-RES ovarian, 884 nM; with OVCAR-5 ovarian, 37.5 nM; in the assay with NCI-H522 lung, 10.2 nM; in the assay on HL-60(TB) leukemia it was 44.9 nM; in the assay on MOLT-4 leukemia it was 22 nM. In addition, the GI50 is 37.6 nM in the assay on U251 CNS, 205 nM in the assay with MALME-3M melanoma, 121 nM in the assay with UACC-62 melanoma and 65.2 nM in the assay on LOX IMVI melanoma. In addition, the TGI in the assay on K-562 leukemia was determined as 98.7 nM; in the assay with NCI/ADR-RES ovarian, 4670 nM; in the assay with OVCAR-5 ovarian, 467 nM; in the assay with NCI-H522 lung, 18.4 nM; in the assay on HL-60(TB) leukemia, 352 nM; in the assay with MOLT-4 leukemia, 192 nM. Besides, the TGI in the assay on U251 CNS was 404 nM; in the assay on MALME-3M melanoma, 538 nM; with UACC-62 melanoma, 300 nM; in the assay with LOX IMVI melanoma, 305 nM.
On to `COc1ccc2c(c1)O/C(=C\c1cccc(OCC(=O)Nc3nc(C)c(C)s3)c1)C2=O`, for which the GI50 is 2650 nM with K-562 leukemia; 21300 nM in the assay on NCI/ADR-RES ovarian; 3790 nM in the assay with OVCAR-5 ovarian; 1260 nM in the assay with NCI-H522 lung; 1480 nM in the assay on HL-60(TB) leukemia; 3380 nM in the assay on MOLT-4 leukemia. Moreover, the GI50 with U251 CNS was 1620 nM; with MALME-3M melanoma it was 1800 nM; in the assay with UACC-62 melanoma, 16500 nM; with LOX IMVI melanoma, 189 nM. For the same compound, the TGI with NCI/ADR-RES ovarian is more than 100000 nM; with OVCAR-5 ovarian it was more than 26300 nM; in the assay with NCI-H522 lung, 2950 nM; in the assay on HL-60(TB) leukemia, 3160 nM; with MOLT-4 leukemia, more than 22500 nM; in the assay on U251 CNS, 3080 nM. Also, the TGI in the assay on MALME-3M melanoma was 3920 nM; with UACC-62 melanoma, more than 100000 nM; in the assay on LOX IMVI melanoma, 351 nM.
`O=C(/C=C\n1cnc(-c2cc(C(F)(F)F)cc(C(F)(F)F)c2)n1)N1CC(F)(F)C1`: the GI50 is 430 nM with K-562 leukemia; 552 nM with NCI/ADR-RES ovarian; 671 nM in the assay with OVCAR-5 ovarian; 423 nM in the assay on NCI-H522 lung; 399 nM in the assay with HL-60(TB) leukemia; 197 nM in the assay on MOLT-4 leukemia. Moreover, the GI50 in the assay with U251 CNS is 248 nM; in the assay on MALME-3M melanoma, 1140 nM; with UACC-62 melanoma it was 1170 nM; in the assay on LOX IMVI melanoma, 357 nM. Moreover, the TGI in the assay on K-562 leukemia was more than 25000 nM; in the assay with NCI/ADR-RES ovarian it was 10900 nM; with OVCAR-5 ovarian, more than 25000 nM; in the assay with NCI-H522 lung it was 4470 nM; in the assay on HL-60(TB) leukemia, more than 17100 nM; in the assay on MOLT-4 leukemia, 944 nM. Also, the TGI in the assay on U251 CNS was 3660 nM; with MALME-3M melanoma it was 5840 nM; in the assay with UACC-62 melanoma it was 9200 nM; in the assay with LOX IMVI melanoma it was 3450 nM.
As to `Cc1cccc(Nc2cc(Cl)nc(SCC(=O)O)n2)c1C`, the TGI in the assay with K-562 leukemia, in the assay with NCI/ADR-RES ovarian, with OVCAR-5 ovarian, in the assay with NCI-H522 lung, in the assay on HL-60(TB) leukemia and in the assay on MOLT-4 leukemia was more than 100000 nM each time. Moreover, the TGI with U251 CNS, with MALME-3M melanoma, in the assay with UACC-62 melanoma and in the assay on LOX IMVI melanoma was more than 100000 nM in each case.
In the case of `COc1ccc2c(c1)CCc1c(CO)c(COC(=O)NC(C)C)n(C)c1-2`, the TGI with K-562 leukemia was 10500 nM; in the assay on NCI/ADR-RES ovarian it was 59200 nM; with OVCAR-5 ovarian, more than 100000 nM; in the assay on NCI-H522 lung it was 14400 nM; in the assay with HL-60(TB) leukemia it was 5230 nM; in the assay on MOLT-4 leukemia it was 8570 nM. For the same compound, the TGI in the assay with U251 CNS amounted to 35800 nM; with MALME-3M melanoma, 16200 nM; in the assay with UACC-62 melanoma, 22700 nM; in the assay with LOX IMVI melanoma, 25400 nM.
As for `Cc1nc(Sc2nc3ccc([N+](=O)[O-])cc3s2)sc1C`, the GI50 with K-562 leukemia is 429 nM; in the assay with NCI/ADR-RES ovarian, 1630 nM; in the assay with OVCAR-5 ovarian it was 2840 nM; in the assay on NCI-H522 lung, 627 nM; in the assay with HL-60(TB) leukemia it was 1680 nM; with MOLT-4 leukemia, 288 nM. Besides, the GI50 was 1990 nM in the assay on U251 CNS, 1400 nM in the assay with MALME-3M melanoma, 1220 nM in the assay with UACC-62 melanoma and 221 nM in the assay on LOX IMVI melanoma. The TGI with K-562 leukemia is 8970 nM; in the assay on NCI/ADR-RES ovarian, 5450 nM; with OVCAR-5 ovarian, 11800 nM; in the assay on NCI-H522 lung, 2360 nM; in the assay with HL-60(TB) leukemia, 4600 nM; with MOLT-4 leukemia it was 3450 nM. For the same compound, the TGI in the assay on U251 CNS amounted to 7900 nM; with MALME-3M melanoma it was 3900 nM; with UACC-62 melanoma, 3490 nM; in the assay with LOX IMVI melanoma it was 932 nM.
As to `CCN(CC)c1ccc(/C=N/NC(=O)CSc2nc3ccccc3c(=O)n2Cc2ccc(S(N)(=O)=O)cc2)c(O)c1`, the GI50 with K-562 leukemia is 592 nM; in the assay on NCI/ADR-RES ovarian it was more than 100000 nM; with OVCAR-5 ovarian, 2090 nM; with NCI-H522 lung it was 2400 nM; in the assay on HL-60(TB) leukemia it was 412 nM; with MOLT-4 leukemia it was 372 nM. For the same compound, the GI50 in the assay on U251 CNS was 510 nM; with MALME-3M melanoma, 1090 nM; in the assay with UACC-62 melanoma, 886 nM; in the assay on LOX IMVI melanoma, 387 nM. For the same compound, the TGI with K-562 leukemia was more than 100000 nM; in the assay on NCI/ADR-RES ovarian it was more than 100000 nM; in the assay with OVCAR-5 ovarian, more than 100000 nM; in the assay on NCI-H522 lung, more than 100000 nM; with HL-60(TB) leukemia, 5380 nM; with MOLT-4 leukemia, more than 100000 nM. In addition, the TGI was more than 100000 nM in the assay with U251 CNS, more than 100000 nM in the assay with MALME-3M melanoma, 5440 nM with UACC-62 melanoma and 10500 nM in the assay on LOX IMVI melanoma.
Turning to `NCCOc1ncccc1/C=C1\c2ccccc2-c2ccc([N+](=O)[O-])cc21`, the GI50 is 33.7 nM in the assay with K-562 leukemia; 154 nM in the assay on NCI/ADR-RES ovarian; 211 nM in the assay on OVCAR-5 ovarian; 68.4 nM in the assay with NCI-H522 lung; 16.5 nM in the assay on HL-60(TB) leukemia; less than 10 nM in the assay on MOLT-4 leukemia. The GI50 was 26.9 nM with U251 CNS, 55 nM in the assay with MALME-3M melanoma, 78.4 nM in the assay on UACC-62 melanoma and 24.3 nM in the assay on LOX IMVI melanoma. Further, the TGI with K-562 leukemia was 1230 nM; in the assay with NCI/ADR-RES ovarian, 1120 nM; in the assay on OVCAR-5 ovarian, 680 nM; in the assay on NCI-H522 lung, 438 nM; in the assay on HL-60(TB) leukemia, 121 nM; with MOLT-4 leukemia it was 74.6 nM. The TGI turned out to be 303 nM with U251 CNS, 275 nM with MALME-3M melanoma, 386 nM in the assay with UACC-62 melanoma and 163 nM in the assay on LOX IMVI melanoma.
